Laboratory results taken from patent US20260109715A1, “IMIDAZOPYRIDINE DERIVATIVES WITH BICYCLIC STRUCTURE” (PUBLIC UNIVERSITY CORPORATION YOKOHAMA CITY UNIVERSITY, priority 2022, published 2026).
Structures can show the parent of a compound that is named as a salt.

Experiments:
[1] = molecular target: human SMG1 enzyme (Homo sapiens, UniProt Q96Q15); test: Measurement of SMG1 kinase activity (ADP-Glo Kinase Assay); assay type: biochemical; conditions: purified human SMG1 enzyme 5 nM, Upf1 peptide substrate, ATP 4 μM; qAC50 synonymous with IC50; read-out: Test Example 1 ADP-Glo IC50
Chain of human SMG1 enzyme (Q96Q15 whole entry): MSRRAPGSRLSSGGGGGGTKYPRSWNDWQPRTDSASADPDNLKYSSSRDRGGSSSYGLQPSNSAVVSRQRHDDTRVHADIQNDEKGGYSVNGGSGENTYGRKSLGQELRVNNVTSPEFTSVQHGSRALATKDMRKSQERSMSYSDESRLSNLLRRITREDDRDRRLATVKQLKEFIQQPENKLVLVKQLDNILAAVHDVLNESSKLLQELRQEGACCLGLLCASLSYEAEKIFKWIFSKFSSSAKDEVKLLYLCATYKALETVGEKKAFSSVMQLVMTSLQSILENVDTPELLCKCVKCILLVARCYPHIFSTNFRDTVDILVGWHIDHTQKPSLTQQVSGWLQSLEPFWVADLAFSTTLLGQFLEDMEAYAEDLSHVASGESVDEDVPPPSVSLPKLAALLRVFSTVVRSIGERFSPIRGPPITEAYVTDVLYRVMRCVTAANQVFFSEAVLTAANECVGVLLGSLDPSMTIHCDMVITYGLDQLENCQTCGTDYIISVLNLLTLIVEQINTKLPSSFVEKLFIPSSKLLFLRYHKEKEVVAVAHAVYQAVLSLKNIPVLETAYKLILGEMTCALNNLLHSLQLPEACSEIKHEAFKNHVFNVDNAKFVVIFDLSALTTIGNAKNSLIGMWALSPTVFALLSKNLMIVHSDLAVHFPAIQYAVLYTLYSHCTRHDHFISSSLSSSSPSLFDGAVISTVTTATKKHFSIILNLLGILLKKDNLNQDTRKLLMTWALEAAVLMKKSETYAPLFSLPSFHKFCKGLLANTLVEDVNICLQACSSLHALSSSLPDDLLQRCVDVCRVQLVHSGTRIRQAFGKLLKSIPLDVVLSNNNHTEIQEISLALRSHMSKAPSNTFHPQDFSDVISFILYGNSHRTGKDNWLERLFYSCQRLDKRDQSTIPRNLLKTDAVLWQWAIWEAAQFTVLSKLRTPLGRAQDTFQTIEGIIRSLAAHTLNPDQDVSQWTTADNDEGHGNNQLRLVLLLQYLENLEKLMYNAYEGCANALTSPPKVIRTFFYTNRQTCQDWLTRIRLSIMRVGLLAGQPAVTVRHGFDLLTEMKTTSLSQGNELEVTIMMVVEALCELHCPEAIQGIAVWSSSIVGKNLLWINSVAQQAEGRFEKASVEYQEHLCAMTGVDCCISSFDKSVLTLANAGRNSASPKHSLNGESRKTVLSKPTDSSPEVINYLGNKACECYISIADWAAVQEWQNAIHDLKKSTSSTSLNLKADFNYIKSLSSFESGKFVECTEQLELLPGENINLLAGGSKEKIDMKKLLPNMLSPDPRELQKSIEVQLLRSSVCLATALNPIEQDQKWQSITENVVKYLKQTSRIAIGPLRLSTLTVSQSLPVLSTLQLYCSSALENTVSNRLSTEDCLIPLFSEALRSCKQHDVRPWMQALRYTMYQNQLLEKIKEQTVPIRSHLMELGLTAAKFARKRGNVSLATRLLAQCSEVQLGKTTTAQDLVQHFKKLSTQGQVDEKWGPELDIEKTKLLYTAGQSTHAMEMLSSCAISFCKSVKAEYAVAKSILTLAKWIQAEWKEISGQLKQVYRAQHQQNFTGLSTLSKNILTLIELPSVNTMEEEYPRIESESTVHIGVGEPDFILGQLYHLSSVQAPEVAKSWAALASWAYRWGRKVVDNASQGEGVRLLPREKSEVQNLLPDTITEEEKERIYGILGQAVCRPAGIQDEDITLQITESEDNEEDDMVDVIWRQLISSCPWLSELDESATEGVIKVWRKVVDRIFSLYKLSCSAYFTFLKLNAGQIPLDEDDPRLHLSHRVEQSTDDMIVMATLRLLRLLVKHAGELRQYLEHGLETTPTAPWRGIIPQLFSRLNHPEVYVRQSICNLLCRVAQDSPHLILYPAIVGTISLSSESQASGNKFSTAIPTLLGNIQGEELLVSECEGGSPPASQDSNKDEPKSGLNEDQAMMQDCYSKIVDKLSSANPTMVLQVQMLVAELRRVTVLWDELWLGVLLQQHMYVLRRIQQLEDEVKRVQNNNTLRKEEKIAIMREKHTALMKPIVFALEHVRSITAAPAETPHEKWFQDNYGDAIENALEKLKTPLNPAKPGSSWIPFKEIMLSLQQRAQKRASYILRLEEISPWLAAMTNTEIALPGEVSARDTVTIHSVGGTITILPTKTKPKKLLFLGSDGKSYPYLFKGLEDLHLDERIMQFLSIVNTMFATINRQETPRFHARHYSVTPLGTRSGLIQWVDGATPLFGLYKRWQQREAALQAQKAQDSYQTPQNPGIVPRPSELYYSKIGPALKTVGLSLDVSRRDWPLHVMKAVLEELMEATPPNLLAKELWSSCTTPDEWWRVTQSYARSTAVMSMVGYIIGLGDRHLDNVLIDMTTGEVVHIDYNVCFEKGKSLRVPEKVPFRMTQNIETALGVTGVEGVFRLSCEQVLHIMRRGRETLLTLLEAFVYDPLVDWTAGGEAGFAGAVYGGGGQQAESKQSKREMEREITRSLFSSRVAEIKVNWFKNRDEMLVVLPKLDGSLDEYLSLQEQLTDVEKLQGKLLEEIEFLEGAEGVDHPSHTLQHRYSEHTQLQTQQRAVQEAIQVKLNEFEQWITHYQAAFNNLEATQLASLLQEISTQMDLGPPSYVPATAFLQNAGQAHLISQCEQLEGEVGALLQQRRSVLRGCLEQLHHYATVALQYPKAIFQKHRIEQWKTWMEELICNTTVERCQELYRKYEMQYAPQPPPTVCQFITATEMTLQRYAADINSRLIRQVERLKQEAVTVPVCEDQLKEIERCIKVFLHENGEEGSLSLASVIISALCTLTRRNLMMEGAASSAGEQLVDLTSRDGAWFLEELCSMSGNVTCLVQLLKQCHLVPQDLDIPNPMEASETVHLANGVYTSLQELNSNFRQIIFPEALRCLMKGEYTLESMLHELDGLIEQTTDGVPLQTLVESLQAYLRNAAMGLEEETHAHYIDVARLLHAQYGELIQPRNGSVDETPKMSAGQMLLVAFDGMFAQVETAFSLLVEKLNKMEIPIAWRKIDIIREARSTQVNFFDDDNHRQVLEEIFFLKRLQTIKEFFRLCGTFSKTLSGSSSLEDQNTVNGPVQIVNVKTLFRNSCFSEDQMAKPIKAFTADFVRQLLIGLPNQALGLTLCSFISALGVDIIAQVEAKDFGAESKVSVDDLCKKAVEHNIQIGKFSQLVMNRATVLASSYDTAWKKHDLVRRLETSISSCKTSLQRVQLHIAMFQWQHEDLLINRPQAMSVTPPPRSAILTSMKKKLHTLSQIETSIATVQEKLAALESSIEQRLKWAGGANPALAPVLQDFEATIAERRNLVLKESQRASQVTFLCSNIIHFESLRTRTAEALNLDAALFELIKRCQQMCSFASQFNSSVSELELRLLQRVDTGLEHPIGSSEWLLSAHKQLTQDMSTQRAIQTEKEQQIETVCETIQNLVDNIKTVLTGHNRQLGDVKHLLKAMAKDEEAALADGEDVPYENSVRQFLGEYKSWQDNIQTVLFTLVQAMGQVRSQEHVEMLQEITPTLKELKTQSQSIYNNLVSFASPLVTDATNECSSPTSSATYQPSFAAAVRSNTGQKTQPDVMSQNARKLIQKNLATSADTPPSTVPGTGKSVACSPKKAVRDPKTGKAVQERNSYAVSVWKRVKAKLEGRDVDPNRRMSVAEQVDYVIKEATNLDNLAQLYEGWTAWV
Excerpt: The SMG1 kinase inhibitory activity of a compound of the present invention or a pharmaceutically acceptable salt thereof can be measured, for example, by the method described below. Using purified human SMG1 protein and a substrate peptide as materials, the kinase activity can be measured by the ADP-Glo Kinase Assay; the SMG1 kinase inhibitory activity of a test substance can be evaluated by comparing the kinase activity in the presence and absence of the test substance.
The reaction was performed by the ADP-Glo Kinase Assay (Promega, catalog number V9102) using a 384-well plate under the conditions of an assay buffer (100 mM HEPES (pH 7.5), 50 mM NaCl, 10 mM MnCl2, 0.01% BSA, 0.1% Tween 20.5 mM TCEP). After incubating a test substance (DMSO solution; final DMSO concentration: 1%) and purified human SMG1 enzyme (Genes Dev. 2011 Jan. 15; 25(2): 153-164, produced by Daiichi Sankyo RD Novare Co., Ltd.; final concentration: 5 nM) at room temperature for 15 minutes, a substrate, Upf1 peptide (Biotin-(PEG8) QIDVALSQDSTYQG, produced by Eurofins genomics; final concentration: 8 μg/mL), and ATP (Promega: 4 μM) were added, and the mixture was reacted at room temperature for 60 minutes (see Non-Patent Literature R. Melero, et al., Structure Volume 22, Issue 8, 5 Aug. 2014, Pages 1105-1119 for the Upf1 peptide). ADP-Glo Reagent was added, and the mixture was reacted at room temperature for 40 minutes. Kinase Detection Reagent was added, and the mixture was reacted for another 30 minutes. The luminescence intensity was measured using EnVision (PerkinElmer).
The activity value (%) of the test substance-added well was calculated from the following formula, where the average luminescence intensity of the DMSO-added well was 0% and the average luminescence intensity of the SMG1 enzyme-free well was −100%.
The qAC50 (compound concentration showing 50% inhibition, synonymous with IC50) of the test substance was calculated using the activity value (%) at each concentration by Smart fit of Screener (Genedata). Smart fit is a general 4-parameter logistic regression model.

[2] = system: Snhg1 transcript (NMD target gene) in EMT6 murine breast cancer cell line; test: Measurement of NMD inhibitory activity in cells (increase in Snhg1 transcript, real-time PCR); design: species or system mouse; conditions: Mus musculus, 6 hours treatment, concentration giving 1/2 of maximum Snhg1 fold change of positive control, read-out: Test Example 2 Cell-based Snhg1 EC50
Method: The NMD inhibitory activity of a compound of the present invention or a pharmaceutically acceptable salt thereof in cells can be measured, for example, by the method described below. EMT6 murine breast cancer cell line is treated with a test substance in vitro for 6 hours, and the increase in the transcript of Snhg1, a known NMD target gene, is quantified as an indicator of NMD inhibition. Quantification is performed by real-time PCR.
NMD inhibitory activity was measured by treating EMT6 murine breast cancer cell line (ATCC) with a test substance and quantifying the increase in the transcript of Snhg1, an NMD target gene (see F. Usui, et al., Scientific Reports volume 9, Article number: 1279 (2019) for the NMD target gene). That is, EMT6 cells were suspended in Waymouth's medium (Gibco, 15% FBS) and seeded in a 96-well plate at 2×10^4 cells/well. The cells were cultured for 1 day. The next day, serially diluted test substance (DMSO solution, final DMSO concentration: 2%) was added. After culturing for 6 hours, the supernatant was removed, and RNA was extracted using the RNeasy 96 kit (QIAGEN, 74182). After synthesizing cDNA using the High Capacity cDNA Reverse Transcription kit (Applied Biosystems, 4368813), the cDNA was mixed with PrimeTime Gene Expression Master Mix (Integrated DNA Technologies) and various probes, and gene expression was quantified using QuantStudio 6 Flex (Thermo Fisher Scientific Inc.). For the probe for the Snhg1 gene, which is an NMD target, Mm.PT.58.44039547 (FAM)(Integrated DNA Technologies) was used, and for the probe for the Tbp gene, which is an endogenous control, Mm00446973_m1 Tbp (VIC-PL) (Applied Biosystems) was used. The relative quantification of Snhg1 transcripts was calculated by the ΔΔCT method, using Thp as an endogenous control and setting the expression level of Snhg1 in untreated wells to 1.
A known NMD inhibitory compound (pyrimidine derivative Example 11i, Bioorg Med Chem Lett. 2012, 22(21), 6636-41) was used as a positive control drug for NMD inhibition. The NMD inhibitory activity of the test substance-added well was calculated as follows: the maximum fold change in Sngh1 expression in the positive control drug-added well relative to that in the untreated well was defined as the maximum NMD inhibitory activity, and the EC50 (compound concentration showing 50%/activity) of the test substance showing a ½-fold change was calculated by the GROWTH function of Microsoft Excel.

IC50 [1] [nM] | EC50 [2] [nM] | SMILES
4.6 | 161 | C[C@@H]1COCCN1c1nc(Cl)cc2[nH]c(-c3cc4cnc(C5=CCCN(C)C5)cc4[nH]c3=O)nc12 [Example 3, 3-{6-chloro-4-[(3R)-3-methylmorpholin-4-yl]-1H-imidazo[4,5-c]pyridin-2-yl}-7-(1-methyl-1,2,5,6-tetrahydropyridin-3-yl)-1,6-naphthyridin-2(1H)-one]
0.79 | 75 | O=c1[nH]c2ccnc(C3=CCCN(S(=O)(=O)C4CC4)C3)c2cc1-c1nc2cnc(Cl)cc2[nH]1 [Example 104, 3-(6-chloro-1H-imidazo[4,5-c]pyridin-2-yl)-5-[1-(cyclopropylsulfonyl)-1,2,5,6-tetrahydropyridin-3-yl]-1,6-naphthyridin-2(1H)-one]
0.64 | 58 | Cc1nn2c(C)c1-c1nccc3[nH]c(=O)c(cc13)-c1nc3c(nc(Cl)cc3[nH]1)NCC(C)(C)CNC(=O)C2 [Example 115, 7-chloro-12,12,19,30-tetramethyl-3,8,10,14,17,18,22,26,31-nonaazahexacyclo[19.6.2.1^2,5.1^17,20.0^4,9.0^25,29]hentriacont-1(28),2,4,6,8,18,20(30),21(29),22,24-decaen-15,27-dione]
0.91 | 6.8 | COc1nc(C)ncc1-c1nccc2[nH]c(=O)c(-c3nc4c(NCC(F)F)nc(Cl)cc4[nH]3)cc12 [Example 69, 3-(6-chloro-4-[(2,2-difluoroethyl)amino]-1H-imidazo[4,5-c]pyridin-2-yl)-5-(4-methoxy-2-methylpyrimidin-5-yl)-1,6-naphthyridin-2(1H)-one]
0.53 | 11 | [2H]C([2H])([2H])Oc1ccccc1-c1nccc2[nH]c(=O)c(-c3nc4c(C(C)O)nc(Cl)cc4[nH]3)cc12 (centres unmarked) [Example 40, 3-[6-chloro-4-(1-hydroxyethyl)-1H-imidazo[4,5-c]pyridin-2-yl]-5-{2-[(^2H3)methyloxy]phenyl}-1,6-naphthyridin-2(1H)-one]
1.5 | 59 | O=C(C1CC1)N1CCC=C(c2nccc3[nH]c(=O)c(-c4nc5cnc(Cl)cc5[nH]4)cc23)C1 [Example 105, 3-(6-chloro-1H-imidazo[4,5-c]pyridin-2-yl)-5-[1-(cyclopropylcarbonyl)-1,2,5,6-tetrahydropyridin-3-yl]-1,6-naphthyridin-2(1H)-one]
4 | 122 | NC1CN(c2nc(Cl)cc3[nH]c(-c4cc5cnccc5[nH]c4=O)nc23)CC(F)(F)C1 (centres unmarked) [Example 9, 3-[4-(5-amino-3,3-difluoropiperidin-1-yl)-6-chloro-1H-imidazo[4,5-c]pyridin-2-yl]-1,6-naphthyridin-2(1H)-one trifluoroacetate]
1.2 | 81 | Cc1c(-c2nccc3[nH]c(=O)c(-c4nc5cnc(Cl)cc5[nH]4)cc23)c(C2CC2)nn1CC(F)F [Example 93, 3-(6-chloro-1H-imidazo[4,5-c]pyridin-2-yl)-5-[3-cyclopropyl-1-(2,2-difluoroethyl)-5-methyl-1H-pyrazol-4-yl]-1,6-naphthyridin-2(1H)-one]
4.9 | 94 | C[C@@H]1COCCN1c1nc(Cl)cc2[nH]c(-c3cc4c(C5(C)CC5)nccc4[nH]c3=O)nc12 [Example 2, 3-{6-chloro-4-[(3R)-3-methylmorpholin-4-yl]-1H-imidazo[4,5-c]pyridin-2-yl}-5-(1-methylcyclopropyl)-1,6-naphthyridin-2(1H)-one]
1.8 | 43 | Cn1ccc(-c2nccc3[nH]c(=O)c(-c4nc5cnc(Cl)cc5[nH]4)cc23)c1 [Example 86, 3-(6-chloro-1H-imidazo[4,5-c]pyridin-2-yl)-5-(1-methyl-1H-pyrrol-3-yl)-1,6-naphthyridin-2(1H)-one]
0.59 | 14 | CCc1nc(Cl)cc2[nH]c(-c3cc4c(-c5c(C)nn(C)c5C)nccc4[nH]c3=O)nc12 [Example 89, 3-(6-chloro-4-ethyl-1H-imidazo[4,5-c]pyridin-2-yl)-5-(1,3,5-trimethyl-1H-pyrazol-4-yl)-1,6-naphthyridin-2(1H)-one]
2.2 | 67 | COc1nc(C)ccc1-c1nccc2[nH]c(=O)c(-c3nc4cnc(Cl)cc4[nH]3)cc12 [Example 66, 3-(6-chloro-1H-imidazo[4,5-c]pyridin-2-yl)-5-(2-methoxy-6-methylpyridin-3-yl)-1,6-naphthyridin-2(1H)-one]
0.38 | 8.3 | Cc1nn2c(C)c1-c1nccc3[nH]c(=O)c(cc13)-c1nc3c(nc(Cl)cc3[nH]1)N(C)CCCCN(C)C(=O)C2 [Example 113, 7-chloro-10,15,20,31-tetramethyl-3,8,10,15,18,19,23,27,32-nonaazahexacyclo[20.6.2.1^2,5.1^18,21.0^4,9 .0^26,30]dotriacont-1(29),2,4,6,8,19,21(31),22(30),23,25-decaen-16,28-dione]
3.6 | 66 | CCc1nc(Cl)cc2[nH]c(-c3cc4c(-c5ccn(C(F)F)n5)nccc4[nH]c3=O)nc12 [Example 150, 3-(6-chloro-4-ethyl-1H-imidazo[4,5-c]pyridin-2-yl)-5-[1-(difluoromethyl)-1H-pyrazol-3-yl]-1,6-naphthyridin-2(1H)-one methanesulfonate]
1.1 | 4.8 | [2H]C([2H])([2H])Oc1ccccc1-c1nccc2[nH]c(=O)c(-c3nc4c(C(C)F)nc(Cl)cc4[nH]3)cc12 (centres unmarked) [Example 41, 3-[6-chloro-4-(1-fluoroethyl)-1H-imidazo[4,5-c]pyridin-2-yl]-5-{2-[(^2H3)methyloxy]phenyl}-1,6-naphthyridin-2(1H)-one]
0.68 | 14 | COc1cc(C(F)F)ncc1-c1nccc2[nH]c(=O)c(-c3nc4c(C)nc(Cl)cc4[nH]3)cc12 [Example 63, 3-(6-chloro-4-methyl-1H-imidazo[4,5-c]pyridin-2-yl)-5-[6-(difluoromethyl)-4-methoxypyridin-3-yl]-1,6-naphthyridin-2(1H)-one]
3.3 | 71 | COc1ccccc1-c1nccc2c1CN(c1nc3cnc(Cl)cc3[nH]1)C(=O)N2 [Example 103, 3-(6-chloro-1H-imidazo[4,5-c]pyridin-2-yl)-5-(2-methoxyphenyl)-3,4-dihydropyrido[4,3-d]pyrimidin-2(1H)-one]
1.8 | 39 | O=c1[nH]c2ccncc2cc1-c1nc2c(-c3ccccc3F)nc(Cl)cc2[nH]1 [Example 25, 3-[6-chloro-4-(2-fluorophenyl)-1H-imidazo[4,5-c]pyridin-2-yl]-1,6-naphthyridin-2(1H)-one]
1.3 | 1.1 | Cc1c2cccc1-c1nccc3[nH]c(=O)c(cc13)-c1nc3c(nc(Cl)cc3[nH]1)N1CCCN(CC1)C(=O)CO2 [Example 110, 7-chloro-32-methyl-17-oxa-3,8,10,14,24,28,35-heptaazaheptacyclo[21.6.2.2^10,14.1^2,5.1^18,22.0^4,9.0^27,31]pentatriacont-1(30),2,4,6,8,18(32),19,21,23(31),24,26-undecaen-15,29-dione]
